Reference: patent publication US11660326B2, “Bacterial-binding peptides for treatment of infectious diseases and related inflammatory processes” (priority 2018, dated 2023)

What was measured:
[1] = tested on: G+ and G− bacterial suspensions (including MDR strains); experiment: Bacterial agglutination assay; format: cell-based; settings: peptide 5, 50 and 200 μg/mL; G+ and G− bacterial suspensions incl. MDR strains
Procedure: FIG. 2. Bacterial agglutination properties of CD6-derived peptides. Increasing concentrations (5, 50 and 200 μg/mL) of the indicated CD6 (PD1, PD2, and PD3), DMBT-1 (pbs1; C+) and CD5 (PD2; C-)-derived peptides were incubated for 2 h at room temperature in 96-well U-bottomed plates with alive bacterial cell suspensions (75×10^6 CFU/mL) in TTC buffer (50 mM Tris pH 7.5 plus 150 mM NaCl, 0.1% Tween 20, and 1 mM Ca^2+). Bacterial agglutination was scored and condensed by two independent observers as −, +/−, +, ++ or +++. (A) Summary of the agglutination results obtained with the indicated panel of Gram-negative (Multidrug resistant Acinetobacter baumanii clinical isolate; Enterobacter cloacae ATCC 23355; Escherichia coli ATCC 25922; Klebsiella pneumoniae ATCC 13883; […]; Pseudomonas aeruginosa ATCC 27853) and Gram-positive (Staphyloccocus aureus ATCC 25923; Methicilin-resistant Staphylococus aureus (MRSA) clinical isolate) bacterial strains. (B) Representative agglutination results obtained for the MRSA clinical isolate.
5×10^8 colony-forming units (CFU)/mL diluted in TTC buffer (50 mM Tris pH 7.5 plus 150 mM NaCl, 0.1% Tween 20, and 1 mM Ca^2+) were mixed (1:1) with different peptide concentrations (0-200 μg/mL) in 96 U-bottomed well microtiter plates (Biofil) (Bikker F J, et al., 2002, Identification of the bacteria-binding peptide domain on salivary agglutinin (gp-340/DMBT1), a member of the scavenger receptor cysteine-rich superfamily, J Biol Chem 277:32109-15). After overnight incubation at 37° C., bacterial agglutination was examined by light microscopy and scored from -(absent) to +++ (maximal) by two independent observers. […]

[2] = Dynamic light scattering (DLS), hydrodynamic size of peptides in solution; format: physicochemical; settings: 10 μg/mL in PBS, 25° C.
Procedure: FIG. 5. Analysis of the hydrodynamic size of CD6-derived peptides in solution. The dynamic light scattering (DLS) analysis of the hydrodynamic diameter of CD6 (PD1, PD2, PD3, and Pcons) and DMBT-1/SAG (pbs1) derived peptides (10 μg/mL) in PBS is shown. The y axis represents the relative intensity of the scattered light; the x axis denotes the hydrodynamic diameter of the particles present in the solution. One representative experiment of four performed is shown (left). The numeric values obtained for each peptide are also shown (right).
The hydrodynamic diameters of peptides (10 μg/mL in PBS) were measured at 25° C. in a Zetasizer Nano S from Malvern Instruments (Worcestershire, UK) equipped with a 633 nm HeNe laser, as described (Saenz A, et al., 2010, Fluidizing effects of C-reactive protein on lung surfactant membranes: protective role of surfactant protein A, FASEB J 24:3662-73). Four scans were recorded for each sample, and samples were analyzed in triplicate.

[3] = tested on: mice undergoing CLP-induced septic shock; experiment: Mouse survival following CLP-induced septic shock; format: in vivo, C57BL/6J mice; settings: for survival: single 6 mg/kg i.v. at +1 h post CLP, FIG. 7; for effect on mice survival, in words: CLP-induced sepsis, compared to saline-treated group
Procedure: FIG. 7. Comparative therapeutic effects of i.v. infused CD6-derived peptides on mouse survival following Cecal Ligation and Puncture (CLP)-induced sepsis. (A, B) C57BL/6J mice were i.v. infused with saline (n=25) or single 6 mg/kg doses of unlabeled CD6- (PD1, n=8; PD2, n=16; PD3, n=15; Pcons, n=12) or DMBT1 (pbs1, n=13) derived peptides at +1 h post CLP induction. A sham group (n=3) was included. In all cases average percent survival was analyzed over time for each group and compared with the saline-treated group using the long-rank t-test (*, P<0.05; **, P<0.01; ***, P<0.001).
FIG. 8. Dose-, time- and via-dependent effects of CD6.PD3 infusion on mouse survival following CLP-induced sepsis. (A) C57BL/6 mice were i.v. infused at +1 h post CLP with saline (n=26) or single increasing doses (3 mg/kg, n=13; 6 mg/kg, n=15; and 12 mg/kg, n=8) of CD6.PD3 peptide. (B) C57BL/6 mice were i.v. infused with saline (n=4) or 6 mg/kg CD6.PD3 at different times post CLP (+1 h, n=5; +3 h, n=5; +6 h, n=6). (C) C57BL/6J mice were i.v. (n=11) or i.p. (n=9) infused with 6 mg/kg CD6.PD3 peptide or saline (n=9) at +1 h post CLP. In all cases, average percent of survival was analyzed over time and compared with the saline-treated group using a log-rank t-test (n.s., not significant; *, P<0.05. **, P<0.01; ***, P<0.001).
FIG. 10. Additive effects of combined administration of CD6.PD3 plus Imipenem/Cilastatin on mouse survival following CLP-induced sepsis. C57BL/6J mice were therapeutically infused at +1 h post CLP with saline (n=36), CD6.PD3 (6 mg/kg i.v.; n=25), Imipenem/Cilastatin (I/C, 50 mg/kg/12 h i.p.; n=9) or a combination of the two later (I/C+PD3, n=11). In all cases average percent survival was analyzed over time for each group and compared to the I/C plus CD6.PD3 group using the long-rank t-test (**, P<0.02; ***, P<0.002).
Animal procedures were approved by the Animal Experimentation Ethical Committee, University of Barcelona. High-grade mortality (≥90% mortality within the first 48-72 h) CLP-induced septic shock was induced in 8-10 week old C57BL/6J male mice (20-25 g; Charles River) as previously reported (Martinez-Florensa M, et al., 2017, Protective Effects of Human and Mouse Soluble Scavenger-Like CD6 Lymphocyte Receptor in a Lethal Model of Polymicrobial Sepsis, Antimicrob Agents Chemother 61:e01391-16).
Survival assays were analyzed by a Log-Rank χ^2 test using GraphPad Prism software. The significance of differences between experimental groups was determined by 2-tailed paired T test with 95% of confidence intervals (CI). P values were considered significant when P<0.05. Statistical analysis (mean±SEM) was performed using a 2-tailed Mann-Whitney test, with 95% of Cl.

Sequence | bacterial agglutination [1] | hydrodynamic size, first (or single) peak [2] | survival [3] | hydrodynamic size, second peak [2] | survival rate post CLP ([3]; 3 mg/kg i.v. at +1 h post CLP, FIG. 8A) | survival, i.v. versus i.p. pathway ([3]; 6 mg/kg at +1 h post CLP, FIG. 8C) | survival rate post CLP ([3]; 6 mg/kg i.v. at +1 h post CLP, FIG. 8A) | survival rate post CLP ([3]; 6 mg/kg i.v. at +1 h post CLP, FIG. 8B) | survival rate post CLP ([3]; 6 mg/kg i.v. at +3 h post CLP, FIG. 8B) | survival rate post CLP ([3]; 12 mg/kg i.v. at +1 h post CLP, FIG. 8A) | mice survival ([3]; +1 h post CLP, CD6.PD3 6 mg/kg i.v., Imipenem/Cilastatin 50 mg/kg/12 h i.p., FIG. 10) | effect on mice survival, in words [3]
GRVEMLEHGEW [CD6.PD2] | not and lower bacterial agglutination properties | 379±5 nm | 12.5% | – | – | – | – | – | – | – | – | –
GQVEVHFRGVW (CD6.PD3) | dose-dependent agglutination | 630±3 nm | 36.36% | 5151±7 nm | 23.08% | No significant differences | 37.5% | 40% | 20% | 40% | 30.8% | improves the survival
GTVEVRLEASW [CD6.PD1] | dose-dependent agglutination | 321±5 nm | – | 1484±8 nm | – | – | – | – | – | – | – | No significant effects
